The structures appear in SMILES notation. Counter-ions that a name gives are not always drawn. Some results are limits rather than exact numbers.

For the first assay, the target named is Rho-associated protein kinase 2 (Homo sapiens, UniProt O75116). The experiment in a line: ROCK2 kinase inhibitor potency, dose response, biochemical, Kinase-Glo luminescence, S6 peptide, 1536-well (AID 644).
Sequence of Rho-associated protein kinase 2 (O75116 whole entry): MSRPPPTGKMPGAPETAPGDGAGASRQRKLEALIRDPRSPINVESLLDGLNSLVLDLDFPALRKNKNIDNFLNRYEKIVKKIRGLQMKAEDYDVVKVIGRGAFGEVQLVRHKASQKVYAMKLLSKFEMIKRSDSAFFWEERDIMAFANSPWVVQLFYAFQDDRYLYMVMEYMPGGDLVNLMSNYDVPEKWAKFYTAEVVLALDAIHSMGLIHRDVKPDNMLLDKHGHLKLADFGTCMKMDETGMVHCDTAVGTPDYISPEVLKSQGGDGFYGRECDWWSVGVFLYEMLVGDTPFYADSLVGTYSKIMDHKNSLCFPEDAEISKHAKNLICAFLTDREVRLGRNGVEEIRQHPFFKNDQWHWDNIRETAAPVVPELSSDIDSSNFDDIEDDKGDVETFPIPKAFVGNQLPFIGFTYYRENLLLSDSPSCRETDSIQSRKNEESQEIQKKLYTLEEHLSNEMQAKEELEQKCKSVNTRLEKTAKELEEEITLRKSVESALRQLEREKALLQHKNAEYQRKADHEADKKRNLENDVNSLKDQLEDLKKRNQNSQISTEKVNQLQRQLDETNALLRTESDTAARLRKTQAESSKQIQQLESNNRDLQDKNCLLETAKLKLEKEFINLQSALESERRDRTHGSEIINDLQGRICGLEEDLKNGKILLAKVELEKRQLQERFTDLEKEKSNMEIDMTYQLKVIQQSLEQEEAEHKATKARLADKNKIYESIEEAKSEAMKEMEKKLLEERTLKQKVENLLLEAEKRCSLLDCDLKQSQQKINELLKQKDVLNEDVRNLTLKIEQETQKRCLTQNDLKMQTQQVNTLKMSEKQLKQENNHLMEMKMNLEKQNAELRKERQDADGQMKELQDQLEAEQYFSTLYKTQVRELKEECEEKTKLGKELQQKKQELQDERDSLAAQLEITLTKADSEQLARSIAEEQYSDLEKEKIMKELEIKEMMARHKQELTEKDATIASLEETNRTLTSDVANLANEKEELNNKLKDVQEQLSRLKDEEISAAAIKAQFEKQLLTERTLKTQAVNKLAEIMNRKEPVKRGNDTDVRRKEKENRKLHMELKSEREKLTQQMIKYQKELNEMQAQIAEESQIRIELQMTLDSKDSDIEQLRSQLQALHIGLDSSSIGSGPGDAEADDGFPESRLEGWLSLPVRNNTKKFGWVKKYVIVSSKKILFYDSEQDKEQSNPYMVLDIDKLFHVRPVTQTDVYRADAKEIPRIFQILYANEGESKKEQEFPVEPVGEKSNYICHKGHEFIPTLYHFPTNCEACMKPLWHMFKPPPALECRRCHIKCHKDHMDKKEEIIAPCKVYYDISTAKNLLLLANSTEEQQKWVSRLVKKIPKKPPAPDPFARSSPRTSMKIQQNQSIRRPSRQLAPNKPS
Settings: not given
Background: Kinase-Glo reads ATP consumption through a luciferase reaction.
Turning to `Oc1ncnc2cc(Cl)ccc12` [7-Chloro-quinazolin-4-ol], the IC50 was more than 19.9 µM. `COc1ccc(CCC(=O)Nc2nc3c(s2)CN(C)CC3)cc1OC` [3-(3,4-dimethoxyphenyl)-N-(5-methyl-6,7-dihydro-4H-[1,3]thiazolo[5,4-c]pyridin-2-yl)propanamide] had an IC50 of more than 59.6 µM.

For the molecule `c1cn(CCCNc2ncnc3nc[nH]c23)cn1` [N-[3-(1-imidazolyl)propyl]-7H-purin-6-amine], the IC50 came to 6.18 µM. On the same count and under the same terms, in the case of `O=C(CSc1nnc(-c2ccncc2)[nH]1)c1ccccc1` it was 0.765 µM. Still for that read-out and setting: then `CCN(CC)CCNC(=O)CCCCn1c(=S)[nH]c2c([nH]c3ccc(OC)cc32)c1=O` [N-[2-(diethylamino)ethyl]-5-(8-methoxy-4-oxo-2-thioxo-1,2,4,5-tetrahydro-3H-pyrimido[5,4-b]indol-3-yl)pentanamide], with more than 19.9 µM; and `CCn1cc(C(=O)Nn2cnnc2)c(=O)c2ccc(C)nc21` [1-ethyl-4-keto-7-methyl-N-(1,2,4-triazol-4-yl)-1,8-naphthyridine-3-carboxamide], with more than 59.6 µM; and `Clc1ccccc1-c1nn2c(-c3ccncc3)nnc2s1` [6-(2-chlorophenyl)-3-(4-pyridinyl)[1,2,4]triazolo[3,4-b][1,3,4]thiadiazole], with more than 59.6 µM. Same read-out and setting: in the case of `CC(C)C(NC(=O)C1CCCCC1)C(=O)Nc1ccncc1` (centres undefined) [MLS000090506] it was 2.3 µM; in that of `O=C1NC(=O)c2cc(NC(=O)C3CCCCC3)ccc21` [MLS000062910], more than 19.9 µM; in that of `Cc1cc(Cl)ccc1OCc1nnc(-c2ccc(O)cc2)[nH]1` [MLS000097369], more than 19.9 µM. On to `N#Cc1c(N=Cc2ccco2)sc2c1CCCCC2` [2-(2-furanylmethylideneamino)-5,6,7,8-tetrahydro-4H-cyclohepta[b]thiophene-3-carbonitrile], for which the IC50 is more than 19.9 µM.

Molecule `Cn1c(C(=O)N2CCCC(C(=O)N3CCN(C(=O)c4ccco4)CC3)C2)cc2sccc21` (centres undefined) [MLS000119519] gave an IC50 of more than 59.6 µM.

The molecule `NC(=O)c1sc2nc3c(c(-c4ccco4)c2c1N)CCC3` [3-amino-4-(2-furyl)-6,7-dihydro-5H-cyclopenta[b]thieno[3,2-e]pyridine-2-carboxamide] came in with an IC50 of more than 59.6 µM.

Turning to `Cc1[nH]c2ccccc2c1C1=CCNCC1` [MLS000045807], the IC50 was found to be 9.63 µM.

As to `CCCCc1c(C)nc(N)[nH]c1=O` [2-azanyl-5-butyl-6-methyl-1H-pyrimidin-4-one], the half-inhibitory concentration (IC50) is more than 59.6 µM. The same measure, in the same setting: then `N#Cc1cccc(NC(=O)CSc2ccccc2)c1` [MLS000099417], with more than 19.9 µM.

`Cc1onc(-c2ccccc2)c1C(=O)N1CCN(C/C=C/c2ccccc2)CC1` [(5-methyl-3-phenyl-1,2-oxazol-4-yl)-[4-[(E)-3-phenylprop-2-enyl]piperazin-1-yl]methanone;hydrochloride] had a half-maximal inhibitory concentration (IC50) of more than 59.6 µM.

`CC(C)(C)C(=O)c1sc(Nc2ccccc2)nc1N` [1-(4-amino-2-anilino-1,3-thiazol-5-yl)-2,2-dimethyl-1-propanone]: the IC50 was more than 59.6 µM.

`C[C@H]1CNCCN1S(=O)(=O)c1cccc2cnccc12` gave an IC50 of 0.1 µM. In turn, `Nc1nonc1-c1nc2ccccc2[nH]1` yielded a half-maximal inhibitory concentration (IC50) of 23.1 µM. The same measure, in the same setting: then `C(=Nc1nc2ccccc2n1CCN1CCCCC1)c1cccs1` [MLS000038975], with more than 59.6 µM; and `COC(=O)c1cccc2c1-c1ccccc1C2N=O` (centres undefined) [(9Z)-9-hydroximinofluorene-4-carboxylic acid methyl ester], with more than 19.9 µM; and `N#Cc1c(N=Cc2cccs2)sc2c1CCCCC2` [2-(2-thenylideneamino)-5,6,7,8-tetrahydro-4H-cyclohepta[b]thiophene-3-carbonitrile], with more than 59.6 µM. As to `Cc1ccccc1NC(=O)Cn1c(C)nc2ccc(NC(=O)C3CC3)cc2c1=O` [Cyclopropanecarboxylic acid [2-methyl-4-oxo-3-(o-tolylcarbamoyl-methyl)-3,4-dihydro-quinazolin-6-yl]-amide], the IC50 was more than 59.6 µM.

For `CN(CCO)c1ncnc2nc[nH]c12` [MLS000101269], the half-maximal inhibitory concentration (IC50) is 7.91 µM. As for `CCc1cc2c(O)ncnc2s1` [MLS000029626], 5.72 µM corresponded to half-maximal inhibition (IC50). For `COc1cc(N=CC2C(=O)Nc3ccccc32)cc(OC)c1OC` (centres undefined), the concentration for half-maximal inhibition (IC50) is 10.5 µM. Same read-out and setting: in the case of `CC(=O)n1cc(-c2ccncc2)c2ccccc21` [1-(3-pyridin-4-yl-1-indolyl)ethanone;hydrochloride] it was 8.16 µM; in that of `O=C(Nc1ccncc1)C1CCCN(S(=O)(=O)c2cccc3cccnc23)C1` (centres undefined) [MLS000118826], 1.73 µM; in that of `Cc1cc(=O)n(-c2ccccc2)[nH]1` [MLS000069602], more than 59.6 µM. As for `c1ccc2c(c1)[nH]c1cnccc12` [9H-pyrido[3,4-b]indole], the IC50 was more than 19.9 µM. On the same count and under the same terms, in the case of `Cc1cccc2cc(=O)[nH]c(C)c12` [1,8-dimethyl-2H-isoquinolin-3-one] it was more than 59.6 µM; in that of `Fc1ccccc1Cn1nnc2c(-n3ccnc3)ncnc21` [3-(2-Fluoro-benzyl)-7-imidazol-1-yl-3H-[1,2,3]triazolo[4,5-d]pyrimidine], more than 19.9 µM; in that of `Nc1nc2ccccc2n1C(=O)CCc1ccccc1` [1-(2-Amino-benzoimidazol-1-yl)-3-phenyl-propan-1-one], more than 59.6 µM.

In the case of `CC(C)CCN1CC(C(=O)N2CCN(c3ccc(F)cc3)CC2)CC1=O` (centres undefined) [4-[4-(4-fluorophenyl)piperazin-1-yl]carbonyl-1-(3-methylbutyl)pyrrolidin-2-one], the IC50 is more than 59.6 µM. On the same count and under the same terms, then `CN(C(=O)c1cccc(-n2c(O)c3c(c2O)CC=CC3)c1)C1CCCCC1` [3-[1,3-bis(oxidanylidene)-3a,4,7,7a-tetrahydroisoindol-2-yl]-N-cyclohexyl-N-methyl-benzamide], with more than 59.6 µM; and `COc1ccc2c(Cl)c(C(N)=O)sc2c1` [3-Chloro-6-methoxy-benzo[b]thiophene-2-carboxylic acid amide], with 6.83 µM.

In the case of `CC(=O)c1cccc(NC(=O)NCc2cccs2)c1` [1-(3-acetylphenyl)-3-(2-thenyl)urea], the IC50 was more than 59.6 µM. Still for that read-out and setting: in the case of `c1ccc(OCCCc2nc(-c3ccncc3)no2)cc1` [4-[5-(3-phenoxypropyl)-1,2,4-oxadiazol-3-yl]pyridine] it was more than 59.6 µM; in that of `Cc1[nH]nc2c1C(c1ccc(-c3ccccc3C#N)o1)C(C#N)C(=N)O2` (centres undefined), more than 19.9 µM; in that of `O=NCc1c[nH]c2ccccc12` [MLS000104363], 4.81 µM. Still for that read-out and setting: then `COc1ccc2[nH]c(=O)c3c(c2c1)OC(C)(C)C=C3`, with more than 19.9 µM; and `CC(C)[C@H]1C(=O)N2CCC[C@H]2[C@]2(O)O[C@](NC(=O)[C@@H]3C=C4c5cccc6[nH]cc(c56)C[C@H]4N(C)C3)(C(C)C)C(=O)N12` [ERGOCORNINE], with more than 59.6 µM.

For `CCCCCC(=O)Nc1ccc2oc(-c3ccncc3)nc2c1` [MLS000039066], the half-maximal inhibitory concentration (IC50) was more than 19.9 µM.

`COc1cc(C=Nn2nnnc2N)ccc1OCc1ccc(F)cc1` [1-[[4-[(4-fluorophenyl)methoxy]-3-methoxy-phenyl]methylideneamino]-1,2,3,4-tetrazol-5-amine]: the half-maximal inhibitory concentration (IC50) amounted to 17.5 µM.

Staying with this assay, now noted: inactive by the depositor's call.
Turning to `O=C(CCCOc1ccccc1)Nc1ccncc1` [4-Phenoxy-N-pyridin-4-yl-butyramide], half-maximal inhibition (IC50) was put at 14.2 µM. Molecule `O=C(CSc1nc(-c2ccc(F)cc2)c[nH]1)Nc1cccc(O)c1` [2-[5-(4-Fluoro-phenyl)-1H-imidazol-2-ylsulfanyl]-N-(3-hydroxy-phenyl)-acetamide] showed a half-maximal inhibitory concentration (IC50) of 23.4 µM. Same read-out and setting: in the case of `CCC(=O)Nc1ccc(C(=O)Cn2nc(C(=O)O)c3ccccc3c2=O)cc1` [4-keto-3-[2-keto-2-(4-propionamidophenyl)ethyl]phthalazine-1-carboxylic acid] it was 11 µM; in that of `Clc1ccccc1-c1nnc2sc(-c3ccncc3)nn12` [3-(2-chlorophenyl)-6-(4-pyridyl)-[1,2,4]triazolo[3,4-b][1,3,4]thiadiazole], 79.1 µM; in that of `O=C(c1ccccc1)c1ccc2[nH]cnc2c1` [MLS000034982], 16.3 µM. The same measure, in the same setting: then `O=C(NCc1ccc2c(c1)OCO2)c1ccc2snnc2c1` [Benzo[1,2,3]thiadiazole-5-carboxylic acid (benzo[1,3]dioxol-5-ylmethyl)-amide], with 11.6 µM; and `NC(=O)c1sc2nc(N3CCCCC3)c3c(c2c1N)CCCC3` [1-amino-5-(1-piperidinyl)-6,7,8,9-tetrahydrothieno[2,3-c]isoquinoline-2-carboxamide], with 143 µM; and `O=C(Oc1cccc2c(=O)[nH]ccc12)c1ccccc1` [(1-oxo-2H-isoquinolin-5-yl) benzoate], with 55.7 µM. Turning to `O=C(Nc1ccncc1)Nc1ccc(F)cc1F` [1-(2,4-difluorophenyl)-3-(4-pyridyl)urea], the 50% inhibitory concentration (IC50) is 19 µM.

`COc1ccc(N2CCN(c3ncnc4[nH]cnc34)CC2)cc1` [MLS000101243]: the IC50 worked out at 16.5 µM. `CCN1CCN(Cc2nnnn2C(C)(C)C)CC1` [1-(1-tert-Butyl-1H-tetrazol-5-ylmethyl)-4-ethyl-piperazine] returned an IC50 of 17.4 µM. `c1coc(CNc2ncnc3[nH]cnc23)c1` yielded an IC50 of 21.4 µM.

`Cc1cc2c(ccc3[nH]onc32)n1` [MLS000038925]: the 50% inhibitory concentration (IC50) was 18.8 µM. The same measure, in the same setting: in the case of `Cc1ccc(S(=O)(=O)NCCCOC(=O)Nc2ccncc2)cc1` [3-[(4-methylphenyl)sulfonylamino]propyl N-pyridin-4-ylcarbamate] it was 20.6 µM; in that of `CCOC1(OCC)N=C(N)C2(C#N)C(c3ccc(NC(C)=O)cc3)C12C#N` (centres undefined) [MLS000085499], 445 µM; in that of `Cc1ccc(SCc2nc(-c3ccncc3)no2)cc1` [4-(5-{[(4-methylphenyl)thio]methyl}-1,2,4-oxadiazol-3-yl)pyridine], 42.6 µM.

`N#Cc1cc2c(nc1SCc1ccncc1)CCC2` [2-(4-pyridylmethylthio)-1-pyrindan-3-carbonitrile] had a half-inhibitory concentration (IC50) of 20.5 µM. Still for that read-out and setting: then `Cc1cccc(Nc2ncnc3[nH]cnc23)c1` [N-(3-methylphenyl)-7H-purin-6-amine], with 13 µM.

Turning to `Cc1c(C(=O)N2CCCCC2)sc(N)c1C#N` [2-amino-4-methyl-5-(piperidine-1-carbonyl)thiophene-3-carbonitrile], the midpoint of inhibition, the IC50, lay at 86.7 µM.

What is called IC50 is the point on the concentration scale where inhibition reaches its midpoint. High values mean weaker potency, low ones greater potency.
